These results are taken from patent publication US8288423B2, “FXa inhibitors with cyclic amidines as P4 subunit, processes for their preparations, and pharmaceutical compositions and derivatives thereof” (Legochem Bioscience Ltd., priority 2007, dated 2012).

Usually Ki stands for a measure of affinity in units of concentration, obtained from inhibition or displacement. By solubility is commonly meant the dissolved amount per volume that the medium holds.

Converted amounts (≈) assume the structure as drawn. Read-outs that look alike come from different tables or passages of the source.

One data set deals with Citrated plasma. The data set is described as follows: Measurement of PT (prothrombin time) in citrated plasma. Type of data set: biochemical. Particulars: STA-Neoplastine, 37° C., unit not given (2×PT value). How it is done:
The effect of oxazolidinone derivatives with cyclic amidines represented by Chemical Formula (1) according to the invention on blood coagulation was compared by measuring PT (prothrombin time) and aPTT (activated Partial Thromboplastin Time). The procedure of measurement is described below. Citrated plasma was purchased from Daejeon-Chungnam Blood Institute (located at Daejeon, Korea). A compound solution (5 μL) according to the invention (in a various concentration gradient, 5% DMSO solution) was added to the plasma ([…]), and the reaction was carried out at 37° C. for 5 minutes. STA-Neoplastine (Diagnostica Stago) (100 μL) was then added thereto, and the duration for plasma coagulation was measured. The duration for plasma coagulation is determined as the point when the absorbance at 340 nm reaches 0.1.

Data set [1] concerns the target T1, factor Xa (Homo sapiens, UniProt P00742).
T1 construct: purchased Enzyme Research Laboratories
The data set can be described thus: Inhibiting activity of factor Xa inhibitor (chromogenic substrate S-2765). It counts as biochemical. Particulars: calculated from IC50 by Equation 1, Km 125 μM; S-2765 substrate, pH 7.8, 37° C.; read-out: Ki (nM), factor Xa inhibition constant. How it is done: Relative rate of hydrolysis (as compared to control group without inhibition) was plotted versus logarithm of the concentration of the oxazolidinone derivative with a cyclic amidine represented by Chemical Formula (1) according to the invention, to obtain the concentration of the inhibitor for 50% decrease in the rate of hydrolysis of the substrate.
The inhibition constant can be obtained by spectrophotometry whereby the color development is determined as a function of time, after being reacted with a specific substrate which develops color upon hydrolysis caused by action of factor Xa.
For the inhibitor solution, the inhibitor compound according to the present invention was diluted with dimethylsulfoxide (DMSO) in 10 mM, and then further diluted with third-distilled water (finally 10% DMSO solution), and the solution (10 μL) was added to each well. […] The substrate solution (20 μL) thus prepared was added to each well.
Kinetic analysis of the reaction was performed by a kinetic plate reader (Molecular Devices, Spectramax 190) at 37° C. for 20 minutes.
Relative rate of hydrolysis (compared to control group without inhibition) versus logarithm of the oxazolidinone derivative with a cyclic amidine group (Chemical Formula I) was plotted to obtain the concentration of the inhibitor to decrease the rate of hydrolysis of the substrate by 50%. GraFit (version 5.0.12) program for statistical process purchased from Erithacus Software was employed.
When inhibition constant Ki is calculated, it can be calculated according to Equation (1).

For another data set, the system named is plasma. The data set is described as follows: Measurement of aPTT (activated partial thromboplastin time) in plasma. Particulars: STA-PTT, CaCl2, 37° C., unit not given. Also on record: unit not given here. It counts as biochemical. How it is done: The effect of oxazolidinone derivatives with cyclic amidines represented by Chemical Formula (1) according to the invention on blood coagulation was compared by measuring PT (prothrombin time) and aPTT (activated Partial Thromboplastin Time). The procedure of measurement is described below. A solution (5 μL) of the oxazolidinone derivative with cyclic amidine group represented by Chemical Formula (1) according to the invention (in a various concentration gradient, 5% DMSO solution) was added to the plasma ([…]), and the reaction was carried out at 37° C. for 2 minutes. STA-PTT (Diagnostica Stago) (50 μL) was then added thereto. After the reaction at 37° C. for additional 5 minutes, 25 mM CaCl2 (50 μL) was added thereto, and the duration for plasma coagulation was measured. The duration for plasma coagulation was determined as the point when the absorbance at 340 nm reaches 0.1.

The next data set deals with thrombus formation. The data set can be described thus: % inhibition against thrombus formation, arteriovenous shunt model in white rats. Type of data set: in vivo, white rats (male Sprague Dawley). Also on record: concentration or dose not given beside the values. Particulars: orally administered 1 hour before opening of the shunt; 15 minutes circulation; versus control group. How it is done: 3) Determination of % Inhibition Against Thrombus Formation by Means of Arteriovenous Shunt Model ([…]) in White Rats Antithrombotic effect of the compounds according to the present invention was evaluated by using arteriovenous shunt model in white rats. The animals used were male Sprague Dawleys with the body weight of 200-250 g. For one day before the experiment, the animals were fasted. Five to six animals were used for each test group. The compound of Example was orally administered 1 hour before opening of the shunt. The rats were anesthetized by abdominal administration of Rompun (Bay HealthCare) and Chloral hydrate or urethane in an amount of 12 and 50 mg per kg of the body weight. Into the left carotid artery and right jugular vein of the white rat, a polyethylene(PE)-60 tubing filled with physiological saline was inserted and secured. Both ends of individual PE tubing were connected to a silicone tubing having a length of 5 cm in which a cotton thread have been incorporated diagonally, and the shunt was open to provide circulation for 15 minutes. The shunt was then compressed by using jaws, and the cotton thread was carefully removed and the thrombus generated was weighed. The % inhibition of thrombus formation was calculated by using the weight of thrombus obtained from white rats of the control group to which a solution of oral administration was administered.

Data set [2] in a line: Determination of aqueous solubility. It counts as physicochemical. To be noted: aqueous with cosolvent or surfactant or cyclodextrin, kinetic from dmso stock; 100 mM potassium phosphate buffer pH 7.4, 5% DMSO, final concentration 500 μM, ambient temperature 90 minutes. How it is done:
The plate was agitated at ambient temperature for 90 minutes with a rate of 225 rpm. After agitation, the content of the plate was filtered with application of pressure. The filtrate (160 μL) was individually transferred to a uv-96 well plate (Costar), and mixed with 40 μL of acetonitrile, and then agitated at ambient temperature for 10 minutes with a rate of 225 rpm. By means of a plate reader (Molecular Devices, Spectramax 190), absorbances at the wavelengths of 280, 300, 320, 340, 360 and 800 nm were measured. As a reference solution, employed was 100 mM potassium phosphate buffer (pH 7.4) containing 20% acetonitrile added by 10 mM DMSO solution (8 μL).

A further data set concerns plasma protein. The data set is described as follows: Determination of plasma protein binding (ultrafiltration, LC-MS/MS). It counts as in vitro ADME. Particulars: citrated plasma, 37° C., 60 minutes, Ultracel-10 filter. How it is done: Citrated plasma was purchased from Daejeon-Chungnam Blood Institute (located at Daejeon, Korea). A compound solution (500 μM in DMSO) (10 μL), according to the invention Was added to the plasma (1 mL), and the reaction was carried out at 37° C. and 120 rpm for 60 minutes. To three wells of Ultracel-10 filter plate (Millipore), the reaction solution was transferred (300 μL each). Then, the plasma solution (70 μL) was taken, and the total concentration of the compound was quantified by means of LC-MS/MS (API3000, ABI). After centrifuging the Ultracel-10 filter plate at 37° C. and 2000×g for 45 minutes, the filtrate was taken to determine the concentration of the compound which was not bound to the plasma protein. Percentage of plasma protein binding was obtained via Equation (2): % Protein binding=(1−concentration of compound in filtrate/concentration of compound in entire solution)×100% Free=100−% Protein binding [Equation 2]

The target of data set [3] is T1, factor Xa. To be noted: background art; cited from earlier work.

T1 sequence (P00742 235-488 limits assumed): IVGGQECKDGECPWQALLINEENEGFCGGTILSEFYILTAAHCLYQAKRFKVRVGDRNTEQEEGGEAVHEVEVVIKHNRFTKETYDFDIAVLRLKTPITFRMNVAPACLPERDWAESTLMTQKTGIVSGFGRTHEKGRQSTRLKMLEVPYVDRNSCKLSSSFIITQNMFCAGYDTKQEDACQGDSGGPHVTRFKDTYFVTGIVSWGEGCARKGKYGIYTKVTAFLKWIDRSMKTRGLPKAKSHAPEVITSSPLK
T1 sequence (P00742 41-179 partner limits assumed): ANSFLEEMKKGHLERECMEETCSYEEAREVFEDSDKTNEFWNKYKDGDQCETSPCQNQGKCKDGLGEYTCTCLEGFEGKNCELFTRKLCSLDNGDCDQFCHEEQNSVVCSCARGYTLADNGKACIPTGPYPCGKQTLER

In the case of `O=C(NC[C@H]1CN(c2ccc(N3CCN=C3C3CC3)cc2)C(=O)O1)c1ccc(Cl)s1` [Compound 117], in the data set on Citrated plasma, the PT was 0.04. Further, the Ki at factor Xa [1] was 3.18 nM. In addition, the APTT with plasma is 0.29. Also, in the data set on thrombus formation, the “% Inhibition (of thrombus formation)” value is on record as 68%. Further, the solubility at 90 min in data set [2] amounted to 484 µM (≈ 215 µg/mL). Moreover, the “Plasma protein binding (% Free)” value in the data set with plasma protein is recorded as 17 % Free.
`O=C(NC[C@H]1CN(c2ccc(N3CCN=C3c3ccco3)cc2)C(=O)O1)c1ccc(Cl)s1` [Compound 123] had a PT with Citrated plasma of 0.07. Also, the Ki on factor Xa [1] is 0.39 nM. Besides, the APTT in the data set on plasma was determined as 0.26. Moreover, the “% Inhibition (of thrombus formation)” value with thrombus formation is 71%. The solubility at 90 min in data set [2] was found to be 474 µM (≈ 223 µg/mL). The “Plasma protein binding (% Free)” value with plasma protein is reported as 3 % Free.
Take “tick anticoagulant peptide (YNRLCIKPRDWIDECDSNEGGERAYFRNGKGGCDSFWICPEDHTGADYYSSYRDCFNACI; UniProt P17726 1-60, looked up) [TAP]”: in the data set with factor Xa [3], the Ki was 0.5 nM.
On to `CCN1CCN=C1c1ccc(N2C[C@H](CNC(=O)c3ccc(Cl)s3)OC2=O)cc1` [Compound 102, 5-chlorothiophene-2-carboxylic acid {(S)-3-[4-(1-ethyl-4,5-dihydro-1H-imidazole-2-yl)-phenyl]-2-oxo-oxazolidin-5-ylmethyl}-amide], for which, in the data set on Citrated plasma, the PT is 0.04. Moreover, the inhibition constant (Ki) at factor Xa [1] was 3.43 nM. In the data set with plasma, this compound gave an APTT of 0.17. In the data set on thrombus formation, the “% Inhibition (of thrombus formation)” value came out at 26%. Further, the solubility at 90 min in data set [2] is 462 µM (≈ 200 µg/mL). For the same compound, the “Plasma protein binding (% Free)” value in the data set on plasma protein turned out to be 28 % Free.
`CN1CCCN=C1c1ccc(N2C[C@H](CNC(=O)c3ccc(Cl)s3)OC2=O)cc1` [Compound 107, 5-chlorothiophene-2-carboxylic acid {(S)-3-[4-(1-methyl-1,4,5,6-tetrahydropyrimidine-2-yl)-phenyl]-2-oxo-oxazolidin-5-ylmethyl}-amide] displayed a PT with Citrated plasma of 0.09. Besides, the Ki on factor Xa [1] is 5.7 nM. This compound also displayed an APTT in the data set on plasma of 0.28. The “% Inhibition (of thrombus formation)” value with thrombus formation is on record as 50%. In data set [2], this compound yielded a solubility at 90 min of 411 µM (≈ 178 µg/mL). Moreover, in the data set with plasma protein, the “Plasma protein binding (% Free)” value was determined as 31 % Free.
In the case of `CN1CCCN=C1c1ccc(N2C[C@H](CNC(=O)c3ccc(Cl)s3)OC2=O)cc1F` [Compound 111, 5-chloro-thiophene-2-carboxylic acid {(S)-3-[3-fluoro-4-(1-methyl-1,4,5,6-tetrahydropyrimidin-2-yl)-phenyl]-2-oxo-oxazolidin-5-ylmethyl}-amide], the PT in the data set with Citrated plasma is on record as 0.03. Also, on factor Xa [1], the Ki was 10.5 nM. In addition, in the data set with plasma, the APTT worked out at 0.28. In addition, in the data set on thrombus formation, the “% Inhibition (of thrombus formation)” value amounted to 49%.
In the data set with Citrated plasma, `CC1=NCCN1c1ccc(N2C[C@H](CNC(=O)c3ccc(Cl)s3)OC2=O)cc1` [Compound 114] yielded a PT of 0.03. Moreover, the Ki at factor Xa [1] is 2.45 nM. This compound yielded an APTT in the data set on plasma of 0.12. For the same compound, the “% Inhibition (of thrombus formation)” value in the data set with thrombus formation is on record as 41%.
The corresponding values for `CCN1CCN=C1c1ccc(N2C[C@H](CNC(=O)c3ccc(Cl)s3)OC2=O)cc1Cl` [Compound 112, 5-chlorothiophene-2-carboxylic acid {(S)-3-[3-chloro-4-(1-ethyl-4,5-dihydro-1H-imidazol-2-yl)-phenyl]-2-oxo-oxazolidin-5-ylmethyl}-amide] are 0.05, 4.05 nM, 0.19 and 26%.
In turn, `O=C(NC[C@H]1CN(c2ccc(C3=NCCN3)cc2)C(=O)O1)c1ccc(Cl)s1` [Compound 100, 5-chlorothiophene-2-carboxylic acid {(S)-3-[4-(4,5-dihydro-1H-imidazol-2-yl)-phenyl]-2-oxo-oxazolidin-5-ylmethyl}-amide] displayed a PT in the data set on Citrated plasma of 0.22. The Ki at factor Xa [1] was 47 nM. In addition, the APTT in the data set with plasma is 2.29. Moreover, in the data set on thrombus formation, the “% Inhibition (of thrombus formation)” value was 40%. The solubility at 90 min in data set [2] is 441 µM (≈ 179 µg/mL). Further, in the data set on plasma protein, the “Plasma protein binding (% Free)” value turned out to be 17 % Free.
Compound `Cc1ccc(C2=NCCN2c2ccc(N3C[C@H](CNC(=O)c4ccc(Cl)s4)OC3=O)cc2)s1` [Compound 131] displayed a PT in the data set on Citrated plasma of 0.08. Also, the inhibitory constant (Ki) at factor Xa [1] is 0.69 nM. Also, the APTT in the data set with plasma is recorded as 0.39. Besides, the “% Inhibition (of thrombus formation)” value in the data set on thrombus formation was 0%.
The matching figures for `O=C(NC[C@H]1CN(c2ccc(N3CCN=C3c3ccoc3)cc2)C(=O)O1)c1ccc(Cl)s1` [Compound 124]: 0.07, 1.71 nM, 0.26 and 52%.
The corresponding values for `CC1=NCCN1c1ccc(N2C[C@H](CNC(=O)c3ccc(Br)s3)OC2=O)cc1` [Compound 138] are 0.04, 2.38 nM, 0.16 and 27%.
With `CN1CCN=C1c1ccc(N2C[C@H](CNC(=O)c3ccc(Cl)s3)OC2=O)cc1` [Compound 101, 5-chlorothiophene-2-carboxylic acid {(S)-3-[4-(1-methyl-4,5-dihydro-1H-imidazol-2-yl)-phenyl]-2-oxo-oxazolidin-5-ylmethyl}-amide], the PT with Citrated plasma turned out to be 0.05. The Ki on factor Xa [1] was 2.97 nM. In the data set with plasma, this compound displayed an APTT of 0.22. In addition, the “% Inhibition (of thrombus formation)” value with thrombus formation amounted to 2%. The same compound displayed a solubility at 90 min in data set [2] of 434 µM (≈ 182 µg/mL). The “Plasma protein binding (% Free)” value with plasma protein is 23 % Free.
For `CCC1=NCCN1c1ccc(N2C[C@H](CNC(=O)c3ccc(Cl)s3)OC2=O)cc1` [Compound 116], the PT with Citrated plasma amounted to 0.05. For the same compound, the inhibition constant (Ki) on factor Xa [1] is 3.46 nM. The compound further came in with an APTT with plasma of 0.18. Further, the “% Inhibition (of thrombus formation)” value in the data set with thrombus formation came out at 65%.
